Results taken from ChEMBL document CHEMBL1159255, “Cardenolides from Nierembergia aristata” (1995).
Values after ≈ are worked out from the molar mass of the structure shown.

How the values were obtained:
[1] = Cytotoxicity against human KBVIN cells in presence of vinblastine; format: functional; conditions: read-out: ED50 (the source's name)
Col2 = test: Cytotoxicity against human Col2 cells; format: functional; conditions: read-out: ED50 (the source's name)
Lu1 = test: Cytotoxicity against human Lu1 cells; format: functional; conditions: read-out: ED50 (the source's name)
A-431 = test: Cytotoxicity against human A431 cells; format: functional; conditions: read-out: ED50 (the source's name)
ZR-75-1 = test: Cytotoxicity against human ZR-75-1 cells; format: functional; conditions: read-out: ED50 (the source's name)
[2] = Cytotoxicity against human KBVIN cells in absence of vinblastine; format: functional; conditions: read-out: ED50 (the source's name)
LNCaP = test: Cytotoxicity against human LNCAP cells; format: functional; conditions: read-out: ED50 (the source's name)
[3] = Cytotoxicity against human BC1 cells; format: functional; conditions: read-out: ED50 (the source's name)
HT = test: Cytotoxicity against human HT cells; format: functional; conditions: read-out: ED50 (the source's name)
[4] = Cytotoxicity against human U373 cells; format: functional, U-373MG ATCC; conditions: U373 MG, read-out: ED50 (the source's name)
KB = test: Cytotoxicity against human KB cells; format: functional; conditions: read-out: ED50 (the source's name)
SK-MEL-2 = test: Cytotoxicity against human SK-MEL-2 cells; format: functional; conditions: read-out: ED50 (the source's name)

| SMILES | EC50 [1] | EC50 (Col2) | EC50 (Lu1) | EC50 (A-431) | EC50 (ZR-75-1) | EC50 [2] | EC50 (LNCaP) | EC50 [3] | EC50 (HT) | EC50 [4] | EC50 (KB) | EC50 (SK-MEL-2) |
| --- | --- | --- | --- | --- | --- | --- | --- | --- | --- | --- | --- | --- |
| C[C@H]1O[C@@H](O[C@H]2CC[C@]3(C=O)[C@H]4CC[C@]5(C)[C@@H](C6=CC(=O)OC6)CC[C@]5(O)[C@@H]4C=C[C@]3(O)C2)C[C@H](O)[C@H]1O | 0.05 µg/mL | 0.07 µg/mL (≈ 0.131 µM) | 0.03 µg/mL (≈ 0.0563 µM) | 0.09 µg/mL (≈ 0.169 µM) | 0.08 µg/mL (≈ 0.15 µM) | 0.06 µg/mL (≈ 0.113 µM) | 0.1 µg/mL (≈ 0.188 µM) | 0.04 µg/mL (≈ 0.0751 µM) | 0.05 µg/mL (≈ 0.0939 µM) | 0.09 µg/mL (≈ 0.169 µM) | 0.04 µg/mL (≈ 0.0751 µM) | 0.05 µg/mL (≈ 0.0939 µM) |
| CO[C@@H]1C[C@H](O[C@H]2CC[C@]3(C=O)[C@H]4CC[C@]5(C)[C@@H](C6=CC(=O)OC6)CC[C@]5(O)[C@@H]4C=C[C@]3(O)C2)O[C@H](C)[C@H]1O | 0.3 µg/mL | 0.9 µg/mL (≈ 1.65 µM) | 0.1 µg/mL (≈ 0.183 µM) | 0.7 µg/mL (≈ 1.28 µM) | 0.2 µg/mL (≈ 0.366 µM) | 0.5 µg/mL (≈ 0.915 µM) | 0.5 µg/mL (≈ 0.915 µM) | 0.3 µg/mL (≈ 0.549 µM) | 0.4 µg/mL (≈ 0.732 µM) | 0.8 µg/mL (≈ 1.46 µM) | 0.3 µg/mL (≈ 0.549 µM) | 0.8 µg/mL (≈ 1.46 µM) |
| C[C@H]1O[C@@H](O[C@H]2CC[C@]3(C=O)[C@H]4[C@H](O)C[C@]5(C)[C@H](C6=CC(=O)OC6)CC[C@]5(O)[C@@H]4C=C[C@]3(O)C2)C[C@H](O)[C@H]1O | 0.6 µg/mL | 0.5 µg/mL (≈ 0.911 µM) | 0.09 µg/mL (≈ 0.164 µM) | 0.5 µg/mL (≈ 0.911 µM) | 0.4 µg/mL (≈ 0.729 µM) | 1.6 µg/mL (≈ 2.92 µM) | 0.3 µg/mL (≈ 0.547 µM) | 0.3 µg/mL (≈ 0.547 µM) | 2.3 µg/mL (≈ 4.19 µM) | 0.4 µg/mL (≈ 0.729 µM) | 0.3 µg/mL (≈ 0.547 µM) | 4.1 µg/mL (≈ 7.47 µM) |
